# Data taken from PubChem BioAssay (NCI).
#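 Exposure lasted 48 hours, with cells grown in 96-well plates and compounds tested at five concentrations. At the GI50, growth is halved. TGI is the concentration that stops growth completely.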
# Legend:
# Assay in all cases: inhibition of tumour cell growth, NCI panel, 48 h
# [1] = system: 786-0 renal
# [2] = system: A498 renal
# [3] = system: A549 NSCLC
# [4] = system: ACHN renal
# [5] = system: BT-549 breast
# [6] = system: CAKI-1 renal
# [7] = system: CCRF-CEM leukemia
# [8] = system: COLO 205 colon
# [9] = system: DU-145 prostate
# [10] = system: EKVX NSCLC
# [11] = system: HCC-2998 colon
# [12] = system: HCT-116 colon
# [13] = system: HCT-15 colon
# [14] = system: HL-60(TB) leukemia
# [15] = system: HOP-62 NSCLC
# [16] = system: HOP-92 NSCLC
# [17] = system: HS 578T breast
# [18] = system: HT29 colon
# [19] = system: IGROV1 ovarian
# [20] = system: K-562 leukemia
# [21] = system: KM12 colon
# [22] = system: LOX IMVI melanoma
# [23] = system: M14 melanoma
# [24] = system: MALME-3M melanoma
# [25] = system: MCF7 breast
# [26] = system: MDA-MB-231 breast
# [27] = system: MDA-MB-435
# [28] = system: MOLT-4 leukemia
# [29] = system: NCI-H226 lung
# [30] = system: NCI-H23 lung
# [31] = system: NCI-H460 lung
# [32] = system: NCI-H522 lung
# [33] = system: NCI/ADR-RES ovarian
# [34] = system: OVCAR-3 ovarian
# [35] = system: OVCAR-4 ovarian
# [36] = system: OVCAR-5 ovarian
# [37] = system: OVCAR-8 ovarian
# [38] = system: PC-3 prostate
# [39] = system: RPMI-8226 leukemia
# [40] = system: RXF 393 renal
# [41] = system: SF-268 CNS
# [42] = system: SF-295 CNS
# [43] = system: SF-539 CNS
# [44] = system: SK-MEL-2 melanoma
# [45] = system: SK-MEL-28 melanoma
# [46] = system: SK-MEL-5 melanoma
# [47] = system: SK-OV-3 ovarian
# [48] = system: SN12C renal
# [49] = system: SNB-19 CNS
# [50] = system: SNB-75 CNS
# [51] = system: SR leukemia
# [52] = system: SW-620 colon
# [53] = system: TK-10 renal
# [54] = system: U251 CNS
# [55] = system: UACC-257 melanoma
# [56] = system: UACC-62 melanoma
# [57] = system: UO-31 renal
smiles,measurement,setting,value
COC(=O)[C@@H](C[C@H](Cc1ccccc1)NC(=O)c1csc([C@@H](C[C@H](C(C)C)N(C)C(=O)[C@@H](NC(=O)[C@H]2CCCCN2C)C(C)C)OC(C)=O)n1)NC(=O)OCc1ccccc1,GI50,[1],1.65 nM
same,TGI,[1],> 8330 nM
same,GI50,[2],1.1 nM
same,TGI,[2],10.4 nM
same,GI50,[3],1.86 nM
same,TGI,[3],> 8330 nM
same,GI50,[4],2.93 nM
same,TGI,[4],> 8330 nM
same,GI50,[5],1.49 nM
same,TGI,[5],83.9 nM
same,GI50,[6],1.66 nM
same,TGI,[6],> 8330 nM
same,GI50,[7],< 0.833 nM
same,TGI,[7],> 7920 nM
same,GI50,[8],< 0.833 nM
same,GI50,[9],< 0.833 nM
same,GI50,[10],17.5 nM
same,TGI,[10],> 8330 nM
same,GI50,[11],< 0.833 nM
same,TGI,[11],> 2890 nM
same,GI50,[12],< 0.833 nM
same,GI50,[13],4.54 nM
same,TGI,[13],> 8330 nM
same,GI50,[14],< 0.833 nM
same,TGI,[14],1.62 nM
same,GI50,[15],1.12 nM
same,TGI,[15],> 8330 nM
same,GI50,[16],2.36 nM
same,TGI,[16],> 8330 nM
same,GI50,[17],< 0.833 nM
same,TGI,[17],> 3550 nM
same,GI50,[18],< 0.833 nM
same,TGI,[18],> 8330 nM
same,GI50,[19],< 0.833 nM
same,TGI,[19],> 7680 nM
same,GI50,[20],< 0.833 nM
same,TGI,[20],> 3180 nM
same,GI50,[21],< 0.833 nM
same,TGI,[21],> 8330 nM
same,GI50,[22],< 0.833 nM
same,TGI,[22],> 8330 nM
same,GI50,[23],< 0.833 nM
same,TGI,[23],412 nM
same,GI50,[24],< 0.833 nM
same,TGI,[24],2680 nM
same,GI50,[25],< 0.833 nM
same,TGI,[25],> 8330 nM
same,GI50,[26],1.31 nM
same,TGI,[26],> 6730 nM
same,GI50,[27],< 0.833 nM
same,TGI,[27],< 0.833 nM
same,GI50,[28],< 0.833 nM
same,TGI,[28],> 8330 nM
same,GI50,[29],1.68 nM
same,TGI,[29],136 nM
same,GI50,[30],1.19 nM
same,TGI,[30],> 8330 nM
same,GI50,[31],< 0.833 nM
same,TGI,[31],> 8330 nM
same,GI50,[32],< 0.833 nM
same,TGI,[32],40 nM
same,GI50,[33],43.9 nM
same,TGI,[33],> 1690 nM
same,GI50,[34],< 0.833 nM
same,GI50,[35],7.17 nM
same,TGI,[35],> 8330 nM
same,GI50,[36],5.38 nM
same,TGI,[36],> 8330 nM
same,GI50,[37],< 0.833 nM
same,TGI,[37],> 8330 nM
same,GI50,[38],< 0.833 nM
same,TGI,[38],> 8330 nM
same,GI50,[39],< 0.833 nM
same,TGI,[39],2490 nM
same,GI50,[40],0.948 nM
same,TGI,[40],> 8330 nM
same,GI50,[41],1.37 nM
same,TGI,[41],> 8330 nM
same,GI50,[42],1.33 nM
same,TGI,[42],> 8330 nM
same,GI50,[43],< 0.833 nM
same,TGI,[43],3.85 nM
same,GI50,[44],< 0.833 nM
same,TGI,[44],3450 nM
same,GI50,[45],906 nM
same,TGI,[45],2390 nM
same,GI50,[46],< 0.833 nM
same,TGI,[46],38.6 nM
same,GI50,[47],2.65 nM
same,TGI,[47],> 8330 nM
same,GI50,[48],1.46 nM
same,TGI,[48],> 8330 nM
same,GI50,[49],< 0.833 nM
same,TGI,[49],> 8330 nM
same,GI50,[50],< 0.833 nM
same,TGI,[50],> 8330 nM
same,GI50,[51],< 0.833 nM
same,TGI,[51],> 3400 nM
same,GI50,[52],< 0.833 nM
same,TGI,[52],> 8330 nM
same,GI50,[53],107 nM
same,TGI,[53],> 8330 nM
same,GI50,[54],< 0.833 nM
same,TGI,[54],> 2650 nM
same,GI50,[55],30.9 nM
same,TGI,[55],2590 nM
same,GI50,[56],< 0.833 nM
same,TGI,[56],> 8330 nM
same,GI50,[57],11.3 nM
same,TGI,[57],> 8330 nM
